Test results taken from article PMC3306445 (Journal of Medicinal Chemistry, 2012).

Assays:
[1] = target: Pseudomonas aeruginosa thymidylate monophosphate kinase (TMK) (Pseudomonas aeruginosa, UniProt Q9HZN8); test: Thymidylate kinase kinetic assay; type: biochemical; settings: for fold improved potency over 19: PaTMK IC50 compared with secondary amide 19; for fold improved inhibition over 1: PaTMK IC50 compared with 1; for fold decreased inhibition compared with 17: PaTMK IC50 compared with 17
TMK = settings: high binding affinity due to LID loop closure; cited from earlier work

Sequence of Pseudomonas aeruginosa thymidylate monophosphate kinase (TMK) (Q9HZN8 whole entry): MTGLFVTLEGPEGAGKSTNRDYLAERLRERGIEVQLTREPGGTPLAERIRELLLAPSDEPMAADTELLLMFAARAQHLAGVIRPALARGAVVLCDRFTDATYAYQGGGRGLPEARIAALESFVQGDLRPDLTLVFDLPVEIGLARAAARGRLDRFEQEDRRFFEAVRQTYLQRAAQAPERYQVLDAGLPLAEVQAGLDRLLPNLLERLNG

## Cn1c(=O)[nH]c2ncc(-c3cccc(C#N)c3)cc21 [Compound 14, 3-(1-Methyl-2-oxo-2,3-dihydro-1H-imidazo[4,5-b]pyridin-6-yl)benzonitrile]
[1]
  PaTMK inhibition (in words): inactive

## Cn1c(=O)[nH]c2ncc(-c3cccc(C(=O)NCC(N)=O)c3)cc21 [Compound 30, N-(2-Amino-2-oxoethyl)-3-(1-methyl-2-oxo-2,3-dihydro-1H-imidazo[4,5-b]pyridin-6-yl)benzamide]
[1]
  fold improved potency over 19: about 2.5 fold

## Cn1c(=O)[nH]c2ncc(-c3cccc(C(=O)NCC(Cc4ccccc4)C(=O)O)c3)cc21 (centres unmarked) [Compound 53, 2-Benzyl-3-(3-(1-methyl-2-oxo-2,3-dihydro-1H-imidazo[4,5-b]pyridin-6-yl)benzamido)propanoic acid]
[1]
  fold improved potency over 19: ca. 18 fold

## Cc1cn([C@H]2C[C@H](O)[C@@H](COP(=O)(O)OP(=O)(O)OP(=O)(O)OP(=O)(O)OP(=O)(O)OC[C@H]3O[C@@H](n4cnc5c(N)ncnc54)[C@H](O)[C@@H]3O)O2)c(=O)[nH]c1=O [TP5A, P1-(5′-adenosyl)-P5-(5′-thymidyl)pentaphosphate]
TMK
  Kd: 20 nM

## Cn1c(=O)[nH]c2ncc(-c3cccc(C(=O)NCC(=O)O)c3)cc21 [Compound 31, 2-(3-(1-Methyl-2-oxo-2,3-dihydro-1H-imidazo[4,5-b]pyridin-6-yl)benzamido)acetic acid]
[1]
  fold improved potency over 19: about 2.5 fold

## Cn1c(=O)[nH]c2ncc(-c3cccc(C(=O)NCCCc4ccc(C(F)(F)F)cc4)c3)cc21 [Compound 57, 3-(1-Methyl-2-oxo-2,3-dihydro-1H-imidazo[4,5-b]pyridin-6-yl)-N-(3-(4-(trifluoromethyl)phenyl)propyl)benzamide]
[1]
  fold improved potency over 19: ca. 18 fold

## Cl.Cn1c(=O)[nH]c2ncc(-c3cccc(CN)c3)cc21 [Compound 15, 6-(3-(Aminomethyl)phenyl)-1-methyl-1H-imidazo[4,5-b]pyridin-2(3H)-one hydrochloride]
[1]
  PaTMK inhibition (in words): lack of activity

## Cn1c(=O)[nH]c2ncc(-c3cccc(C(=O)NCCCc4ccc(F)cc4)c3)cc21 [Compound 47, N-(3-(4-Fluorophenyl)propyl)-3-(1-methyl-2-oxo-2,3-dihydro-1H-imidazo[4,5-b]pyridin-6-yl)benzamide]
[1]
  fold improved potency over 19: ca. 18 fold

## CNC(=O)c1cccc(-c2cnc3[nH]c(=O)n(C)c3c2)c1 [Compound 19, N-Methyl-3-(1-methyl-2-oxo-2,3-dihydro-1H-imidazo[4,5-b]pyridin-6-yl)benzamide]
[1]
  fold improved inhibition over 1: 30 fold
  fold decreased inhibition compared with 17: 5 fold

## Cn1c(=O)[nH]c2ncc(-c3cccc(C(N)=O)c3)cc21 [Compound 17, 3-(1-Methyl-2-oxo-2,3-dihydro-1H-imidazo[4,5-b]pyridin-6-yl)benzamide]
[1]
  fold improved inhibition over 1: 130 fold
[1]; compared with 26 (p-carboxamide)
  fold increase of PaTMK inhibition over 26: ca. 1000 fold

## CN(C)C(=O)c1cccc(-c2cnc3[nH]c(=O)n(C)c3c2)c1 [Compound 20, N,N-Dimethyl-3-(1-methyl-2-oxo-2,3-dihydro-1H-imidazo[4,5-b]pyridin-6-yl)benzamide]
[1]
  fold decreased inhibition compared with 17: 240 fold

## Cn1c(=O)[nH]c2ncc(-c3cccc(C(=O)NCCCc4c[nH]c5ccccc45)c3)cc21 [Compound 48, N-(3-(1H-Indol-3-yl)propyl)-3-(1-methyl-2-oxo-2,3-dihydro-1H-imidazo[4,5-b]pyridin-6-yl)benzamide]
[1]
  fold improved potency over 19: ca. 18 fold
